Assays:
5-Lipoxygenase = target: T1, 5-Lipoxygenase (Homo sapiens, UniProt P09917); test: cell-based
T1 sequence (P09917 1-674): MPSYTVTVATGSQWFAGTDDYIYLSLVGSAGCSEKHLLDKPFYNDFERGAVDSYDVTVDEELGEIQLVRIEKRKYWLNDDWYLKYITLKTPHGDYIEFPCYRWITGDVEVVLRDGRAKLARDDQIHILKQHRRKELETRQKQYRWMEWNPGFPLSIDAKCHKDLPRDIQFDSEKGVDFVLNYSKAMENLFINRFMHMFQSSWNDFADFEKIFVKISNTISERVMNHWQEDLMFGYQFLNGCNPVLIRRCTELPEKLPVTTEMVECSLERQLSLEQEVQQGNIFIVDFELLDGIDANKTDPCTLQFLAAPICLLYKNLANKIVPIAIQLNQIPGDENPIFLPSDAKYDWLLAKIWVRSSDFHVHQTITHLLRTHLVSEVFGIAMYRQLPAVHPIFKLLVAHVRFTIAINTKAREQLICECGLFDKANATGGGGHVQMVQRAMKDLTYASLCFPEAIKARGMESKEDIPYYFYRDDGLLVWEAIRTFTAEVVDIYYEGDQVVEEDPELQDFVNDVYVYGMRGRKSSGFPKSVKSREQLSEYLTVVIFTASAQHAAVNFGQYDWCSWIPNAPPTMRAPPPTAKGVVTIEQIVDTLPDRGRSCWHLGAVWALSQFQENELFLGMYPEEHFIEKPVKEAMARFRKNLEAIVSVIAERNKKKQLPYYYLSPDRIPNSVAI
Text: Die Hemmung der Freisetzung von 5-HETE und Leukotrien B4 aus den Leukozyten stellt ein Maß für den lipoxygenasehemmenden Effekt der erfindungsgemäßen Verbindungen dar.
Der Test mit den Humanleukozyten wurde nach Borgeat und Samuelsson (J. Biol. Chem. 254, 2643, 1979 und Proc. Natl. Acad. Sci. USA, 76, 2148, 1979) durchgeführt.
Die im vorliegenden Beispiel verwendeten Human PMN-Leukozyten (w95 %) wurden aus heparinisiertem Vollblut durch eine Dextran-Sedimentation und anschließende Dichtegradiententrennung (Ficoll-Paque) gewonnen (vgl. A. Boyum, Scand. J. Immunol., 5, Suppl 5, 9, 1976).
2 x 10^7 Zellen/ml wurden in Ca2+-haltigem Dulbecco-Phosphat-Puffer suspendiert und in Anwesenheit bzw. Abwesenheit von Lipoxygenasehemmer mit dem Calcium-Ionophor A 23187 stimuliert.
Nach 15 Minuten wurden die Lipoxygenaseprodukte aus dem angesäuerten Inkubationsmedium extrahiert und mittels HPLC getrennt. Die Hochdruckflüssigkeitschromatographie wurde auf Lichrosorb RP-18(5 µm)-Säulen durchgeführt. Das Laufmittel war Methanol/Wasser/Eisessig 69/ 31/0.01. Die Flußrate betrug 1 ml/min. Leukotrien B4 wurde bei 280 nm, die HETE-Derivate bei 232 nm mittels der UV-Absorption bestimmt.

Prostacyclin (PGI2) = test: Prostacyclin stimulation in aortic rings ex vivo; conditions: 30 mg/kg p.o., Ratten
Experimental: Aortenringe von mit Prüfsubstanzen vorbehandelten Ratten werden 10 Minuten bei 37°C in Trispuffer (pH 7,8) inkubiert. Das sich bildende Prostacyclin wird nach Umwandlung zu dem stabilen 6-Keto-PGF radioimmunologisch bestimmt. Literatur: Mc Intyre, D.E., Salzman, E.W., Thrombos. Haemostas. 46, 19, 1981. Seuter, F. et al., 6th International Symposium on Atherosclerosis, Abstr. 270, Berlin 1982.

[1] = test system: durch Arachidonsäure induzierten Thromboembolie; test: Protection against arachidonic acid induced thromboembolism; type: in vivo; conditions: 100 mg/kg p.o., Kaninchen, 1,5 mg/kg Na-arachidonat
Experimental: In diesem Modell wirken Substanzen, die mit der Prostaglandin- und Thromboxanbiosynthese interferieren. Kaninchen werden 1,5 mg/kg Na-arachidonat in eine marginale Ohrvene injiziert. Die Tiere sterben innerhalb von Minuten, vermutlich aufgrund vasospastischer Cyclooxygenase- und Lipoxygenaseprodukte sowie embolisierender Plättchenthromben. Vorbehandlung mit den erfindungsgemäßen Verbindungen schützt die Tiere, so daß diese überleben. Literatur: Silver, M.J. et al., Science 183, 1085, 1974 Seuter, F., Busse, W.D., Agents and Actions, Suppl. 4, 175, 1979.

## CC(C(=O)O)c1ccc2oc(-c3ccc(Cl)cc3)nc2c1 (stereo not shown) [Benoxaprofen]
5-Lipoxygenase
  IC50: 33.1 to 166 µM

## CSCCOC(=O)C1=C(C)Nc2ccccc2S1 [Herstellungsbeispiel 7]
Prostacyclin (PGI2)
  Fähigkeit von Aortenringen Prostacyclin zu synthetisieren: erhöht

## O=C1CCCC2=C1Sc1ccccc1N2 [Herstellungs-beispiel 16]
[1]
  Überlebensrate %: 66,6%

## CC(Cc1ccc(O)c(O)c1)C(C)Cc1ccc(O)c(O)c1 (stereo not shown) [NDGA, Nordihydroguaretsäure]
5-Lipoxygenase; 0.25 h, read-out: Hemmung
  inhibition at 0.5 µg/mL: ~50%

— patent publication EP0174458A1, “Use of 4H-1,4 benzothiazines in the prophylaxis and therapy of diseases of the breath ways, inflammations, rheumatisms, thromboembolic diseases, ischemia and infarctus, heart rhythm disorders, arteriosclerosis and dermatosis, therapeutic agents for this purpose and reactive compounds which are …” (BAYER AG, priority 1984, dated 1986)
